This assay concerns the target human HSP90a (recombinant N-terminal nucleotide binding domain) (Homo sapiens (Human), UniProt P07900). The assay is described as follows: Competition fluorescence polarization binding assay with TSD-FP probe. As to conditions: method of Example A-1; incubation time not stated; read-out: Binding Affinity IC50. The procedure: The reaction can be followed kinetically using fluorescence (excitation λ=485 nm; emission λ=538 nm). The binding affinity of the test compound to HSP90 is determined by the changes in the polarized fluorescence; the intensity of the polarized fluorescence is proportional to the fraction of bound probe. A novel small molecule fluorescence probe, (S,E)-5-(2-(2-amino-7-(4-fluoro-2-(6-methoxypyridin-2-yl)phenyl)-4-methyl-7,8-dihydroquinazolin-5(6H)-ylideneaminooxy)ethylcarbamoyl)-2-(6-hydroxy-3-oxo-3H-xanthen-9-yl)benzoic acid (TSD-FP probe) was specifically developed for the assay. Inhibition constants (IC50) may be calculated by non-linear curve fitting of the compound concentrations and fluorescence intensities to the standard IC50 equation.
The sequence of human wild-type HSP90a is well known in the art; see, Chen B. et al. Genomics 2005.86:627-637. The gene encoding HSP90a can be isolated from RNA, cDNA or cDNA libraries. In this case, the gene encoding residues 9-236 of image clone 5270926 of HSP90α (ATCC) was isolated. This portion of the gene encoding a section of human HSP90a that includes the N-terminal nucleotide binding domain of human HSP90a was cloned into pET28a vector (Novagen). The DNA sequence of the vector is shown in SEQ ID NO: 1. Expression from this vector produced a protein consisting of the recombinant N-terminal nucleotide binding domain of HSP90a with a cleavable 6′-histidine tag and a cleavage site at the N-terminus The amino acid sequence of this recombinant protein is shown in SEQ ID NO: 2.
Recombinant human N-terminal truncated His6-HSP90a was expressed in E. coli (BL21) cells with IPTG induction. Cell paste from 24×60 mL tubes (grown in a multi-tube airlift fermentor) was lysed using an automated sample lyser. Briefly, the pellet in each tube was suspended in 21 mL of lysis buffer consisting of 50 mM Tris pH 7.9, 50 mM NaCl, 1 mM MgCl2, 0.6 g/L Lysozyme (Sigma), 100 μL/L Benzonase (Novagen). […] After incubation, 5 M NaCl was added to bring the final salt concentration to 400 mM. The tubes were sonicated for 50 seconds and then centrifuged at 3400 rpm for 50 min. The supernatants were pooled and 4 ml of ProBond Ni resin (Invitrogen) was added. After at least 30 minutes, the resin was spun down, washed with 25 mM Tris pH 7.6, 400 mM NaCl, 20 mM imidazole, poured into a column and washed with 10 column volumes of the same buffer. The protein was eluted from the column using 3 column volumes of 25 mM Tris pH 7.6, 400 mM NaCl, 400 mM imidazole. The eluate was loaded onto a Supedex 200 column (GE Healthcare) equilibrated with 25 mM Tris pH 7.6, 250 mM NaCl, 0.25 mM TCEP, 1 mM EDTA and peak fractions were pooled and concentrated to ˜6 mg/mL using 10 kDA MWCO centrifugal concentrators (Millipore). Aliquots were flash frozen in liquid nitrogen and stored at −80° C. All purification was done at 4° C.
A fluorescein labeled small molecule was designed and synthesized as a probe (TSD-FP probe) for the determination of the binding affinity of the test compound to HSP90 proteins. The synthesis of the small molecule, (S,E)-2-amino-7-(4-fluoro-2-(6-methoxypyridin-2-yl)phenyl)-4-methyl-7,8-dihydroquinazolin-5(6H)-one O-2-aminoethyl oxime (Compound 24) was described in Examples 24 and 25 above. The TSD-FP probe was prepared according to the following procedure:
The inhibitory effect of the compounds of the invention against HSP90a was determined by fluorescence polarization assay. The assay was run in a black 384-well-plate and in an assay buffer comprising 25 mM Hepes pH 7.3, 150 mM NaCl, 0.1 mM EDTA, 0.01% Brij35, 1 mM DTT.
To each test well, an aliquot of buffer, 2 μl of test compound in 10% DMSO, 4 μl of 6.25 nM of TSD FP probe, 4 μl of 12.5 nM of purified HSP90a protein were added. […] For negative control, no inhibitor was added.
Consider `COc1cccc(-c2cc(F)ccc2[C@H]2Cc3nc(N)nc(C)c3/C(=N/OC[C@H]3O[C@@H](OC)[C@H](O)[C@@H]3O)N2)n1` (mixture of isomers) [Compound 45, (R,Z)-2-amino-7-(4-fluoro-2-(6-methoxypyridin-2-yl)phenyl)-4-methyl-7,8-dihydropyrido[4,3-d]pyrimidin-5(6H)-one O-((2R,3S,4R,5R)-3,4-dihydroxy-5-methoxytetrahydrofuran-2-yl)methyl oxime], for which the IC50 was determined as 10 nM. Regarding `COc1cccc(-c2cc(F)ccc2[C@H]2Cc3nc(N)nc(C)c3/C(=N/OCC3C[C@@H](O)[C@@H](O)C3)N2)n1` (stereo partly drawn) [Compound 59, (7R,Z)-2-amino-7-(4-fluoro-2-(6-methoxypyridin-2-yl)phenyl)-4-methyl-7,8-dihydropyrido[4,3-d]pyrimidin-5(6H)-one O-((3R,4S)-3,4-dihydroxycyclopentyl)methyl oxime], the IC50 stood at 8 nM. For the compound `COc1cccc(-c2cc(F)ccc2[C@H]2Cc3nc(N)nc(C)c3/C(=N/O[C@@H](CCO)C(=O)N(C)C)N2)n1` [Compound 93, (S)-2-((Z)—((R)-2-amino-7-(4-fluoro-2-(6-methoxypyridin-2-yl)phenyl)-4-methyl-7,8-dihydropyrido[4,3-d]pyrimidin-5(6H)-ylidene)aminooxy)-4-hydroxy-N,N-dimethylbutanamide], the half-inhibitory concentration (IC50) was 8 nM. `COc1cccc(-c2cc(F)ccc2[C@H]2Cc3nc(N)nc(C)c3/C(=N/O)N2)n1` [Compound 61, (R,Z)-2-amino-7-(4-fluoro-2-(6-methoxypyridin-2-yl)phenyl)-4-methyl-7,8-dihydropyrido[4,3-d]pyrimidin-5(6H)-one oxime]: the IC50 came to 3 nM. With `COc1cccc(-c2cc(F)ccc2[C@H]2Cc3nc(N)nc(C)c3/C(=N/OCC[C@H](O)CO)N2)n1` [Compound 37, (R,Z)-2-amino-7-(4-fluoro-2-(6-methoxypyridin-2-yl)phenyl)-4-methyl-7,8-dihydropyrido[4,3-d]pyrimidin-5(6H)-one O—(S)-3,4-dihydroxybutyl oxime], the IC50 turned out to be 6 nM. In the case of `COc1cccc(-c2cc(F)ccc2[C@H]2Cc3nc(N)nc(C)c3/C(=N/OCCCO)N2)n1` [Compound 78, (R,Z)-2-amino-7-(4-fluoro-2-(6-methoxypyridin-2-yl)phenyl)-4-methyl-7,8-dihydropyrido[4,3-d]pyrimidin-5(6H)-one O-3-hydroxypropyl oxime] it was 4 nM. In the case of `COc1cccc(-c2cc(F)ccc2[C@H]2Cc3nc(N)nc(C)c3/C(=N/OC3C[C@@H](O)[C@@H](O)C3)N2)n1` (stereo partly drawn) [Compound 58, (7R,Z)-2-amino-7-(4-fluoro-2-(6-methoxypyridin-2-yl)phenyl)-4-methyl-7,8-dihydropyrido[4,3-d]pyrimidin-5(6H)-one O-(3R,4S)-3,4-dihydroxycyclopentyl oxime], the IC50 amounted to 5 nM. Consider `COc1cccc(-c2cc(F)ccc2[C@H]2Cc3nc(N)nc(C)c3/C(=N/OC[C@H](O)CO)N2)n1` [Compound 33, (R,Z)-2-Amino-7-(4-fluoro-2-(6-methoxypyridin-2-yl)phenyl)-4-methyl-7,8-dihydropyrido[4,3-d]pyrimidin-5(6H)-one O—(R)-2,3-dihydroxypropyl oxime], for which the IC50 was determined as 4 nM.

For `COc1cccc(-c2cc(F)ccc2[C@H]2Cc3nc(N)nc(C)c3/C(=N/OCC3CCC(O)CC3)N2)n1` (stereo partly drawn) [Compound 65, (R,Z)-2-amino-7-(4-fluoro-2-(6-methoxypyridin-2-yl)phenyl)-4-methyl-7,8-dihydropyrido[4,3-d]pyrimidin-5(6H)-one O-((1s,4S)-4-hydroxycyclohexyl)methyl oxime], the IC50 was 10 nM.

On to `COc1cccc(-c2cc(F)ccc2[C@H]2Cc3nc(N)nc(C)c3/C(=N/OCC(=O)N(C)CCO)N2)n1` [Compound 99, (R,Z)-2-(2-amino-7-(4-fluoro-2-(6-methoxypyridin-2-yl)phenyl)-4-methyl-7,8-dihydropyrido[4,3-d]pyrimidin-5(6H)-ylideneaminooxy)-N-(2-hydroxyethyl)-N-methylacetamide], for which the concentration for half-maximal inhibition (IC50) was 8 nM. Consider `COc1cccc(-c2cc(F)ccc2[C@H]2Cc3nc(N)nc(C)c3/C(=N/OCC(=O)N3CC[C@@H](F)C3)N2)n1` [Compound 85, 2-((Z)—((R)-2-amino-7-(4-fluoro-2-(6-methoxypyridin-2-yl)phenyl)-4-methyl-7,8-dihydropyrido[4,3-d]pyrimidin-5(6H)-ylidene)aminooxy)-1-((R)-3-fluoropyrrolidin-1-yl)ethanone], for which the IC50 was determined as 4 nM. With `COc1cccc(-c2cc(F)ccc2[C@H]2Cc3nc(N)nc(C)c3/C(=N/OCC(=O)N(C)C[C@H](O)CO)N2)n1` [Compound 96, 2-((Z)—((R)-2-amino-7-(4-fluoro-2-(6-methoxypyridin-2-yl)phenyl)-4-methyl-7,8-dihydropyrido[4,3-d]pyrimidin-5(6H)-ylidene)aminooxy)-N—((S)-2,3-dihydroxypropyl)-N-methylacetamide], the IC50 came out at 13 nM. Turning to `COc1cccc(-c2cc(F)ccc2[C@H]2Cc3nc(N)nc(C)c3/C(=N/OCCCCO)N2)n1` [Compound 79, (R,Z)-2-amino-7-(4-fluoro-2-(6-methoxypyridin-2-yl)phenyl)-4-methyl-7,8-dihydropyrido[4,3-d]pyrimidin-5(6H)-one O-4-hydroxybutyl oxime], the IC50 amounted to 6 nM.

As for `COc1cccc(-c2cc(F)ccc2[C@H]2Cc3nc(N)nc(C)c3/C(=N/OCC(CO)CO)N2)n1` [Compound 35, (R,Z)-2-Amino-7-(4-fluoro-2-(6-methoxypyridin-2-yl)phenyl)-4-methyl-7,8-dihydropyrido[4,3-d]pyrimidin-5(6H)-one O-3-hydroxy-2-(hydroxymethyl)propyl oxime], the IC50 is 13 nM.

As for `COc1cccc(-c2cc(F)ccc2[C@H]2Cc3nc(N)nc(C)c3/C(=N/OCC(=O)N(C)C)N2)n1` [Compound 83, (R,Z)-2-(2-amino-7-(4-fluoro-2-(6-methoxypyridin-2-yl)phenyl)-4-methyl-7,8-dihydropyrido[4,3-d]pyrimidin-5(6H)-ylideneaminooxy)-N,N-dimethylacetamide], the IC50 amounted to 8 nM.

(Values after US8618290B2, “HSP90 inhibitors” (Takeda Pharmaceutical Company Limited, priority 2008, dated 2013).)
